Results published in patent US20130287688A1, “NOVEL COMPOSITIONS AND USES OF ANTI-HYPERTENSION AGENTS FOR CANCER THERAPY” (XTUIT PHARMACEUTICALS, INC., priority 2010, published 2013).

Legend:
AK4.4 tumors = assay: Solid stress (tumor opening technique); design: species or system mice; settings: mouse, in vivo
4T1 breast tumors = assay: Solid stress (tumor opening technique); design: species or system mice; settings: mouse, in vivo
Source text: FIG. 25 is a bar graph showing that angiotensin inhibitors decrease stress in multiple tumor models. Solid stress levels in tumors after angiotensin inhibition using losartan are shown. […] Animal numbers n=10-11 (4T1 stress), n=4-8 (Pan-02 stress).
The mechanism responsible for the increase in tumor vessel perfusion by losartan was investigated. Desmoplasia, high stromal cell and matrix density, is a major contributor to the solid stress accumulation that compresses vessels (Stylianopoulos T, et al., Growth-induced mechanical stress in murine and human tumors: causes, consequences and remedies. under review. 2012). […] Moreover, losartan decreased collagen I concentration, measured based on staining intensity, in E0771 and AK4.4 tumors (FIGS. 24B-24C). […] Next, solid stress in these tumors was measured using recently established technique described in Stylianopoulos T, et al., Growth-induced mechanical stress in murine and human tumors: causes, consequences and remedies. under review. […]
Solid stress: Solid stress was measured using the tumor opening technique as described previously (Stylianopoulos T, et al., Growth-induced mechanical stress in murine and human tumors: causes, consequences and remedies. under review. 2012). […] Subsequently, each tumor was excised, washed with Hanks' Balanced Salt Solution (HBSS) and its three dimensions were measured. […]

E0771 tumors = assay: Nanoparticle penetration (effective permeability) by intravital multiphoton microscopy; type: in vivo, mice
Source text: Penetration rates are quantified as effective permeability, which is the transvascular mass flux per unit vascular surface area and transvascular concentration difference.
Nanoparticle penetration rates were quantified as transvascular mass flux per unit vascular surface area and transvascular concentration difference, termed as the effective permeability.
Images were taken at ˜60 mW at sample surface. Mosaic images were taken in raster pattern using a motorized stage (H101, Prior Scientific) and customized automation software (LabView, National Instruments). Imaging studies were performed with a 20× magnification, 0.95NA water immersion objective (Olympus XLUMPlanFl, 1-UB965, Optical Analysis).
Concentrations were adjusted with in vitro calibration to result in roughly equal photoluminescence intensity for all three nanoparticle samples under 800 nm multiphoton excitation. […] Images were taken every 3 min at each region of interest for a duration of 1 hr. […] The analysis approach involved 3D vessel tracing to create vessel metrics and a 3D map of voxel intensity versus distance to the nearest vessel over time. Images were also corrected for sample movement over time with 3D image registration. The effective permeability was calculated with
Fluorescence intensities were used as these concentrations. The calculation was made as an average over the entire imaged volume for each tumor.

[1] = test system: L3.6 pl orthotopic pancreatic tumors; assay: Distribution and penetration of intravenously injected 100 nm nanoparticles; type: in vivo, mice; settings: i.v. injected 100 nm nanoparticles
Protocol: The inventors then assessed the effect of losartan on blood vessel perfusion and the intratumoral distribution of i.v. injected nanoparticles in mice with orthotopic pancreatic tumors (L3.6 pl).
A total volume of 10 μl at a concentration of 3.6×10^13 nanoparticles/ml was injected via the tail vein. Twenty-four hrs later 50 μl of FITC-lectin was injected to identify functional vessels. Five min after the lectin-injection tumors were resected, fixed in paraformaldehyde and embedded in OCT. Tumors were then sectioned before confocal imaging and analysis. The extent of nanosphere distribution was determined by measuring the fraction of pixels brighter than the background signal. Nanosphere penetration was determined by drawing contours around perfused vessels and recording the fraction of pixels positive for nanospheres in each contour. Contours extended out to 30 μm for each perfused vessel. Using a previously described algorithm (Tong R T, et al. (2004) Cancer Res 64:3731-3736), the inventors fit the plot of nanosphere fraction and distance away from the vessel to an exponential and obtained a relative penetration depth of nanospheres from each vessel.

HSTS26T tumors = assay: Intratumoral spread of i.t. injected oncolytic HSV (GFP); type: in vivo, mice; settings: 24 hrs after i.t. injection of HSV expressing GFP
Source text: (§1) Based on the previous studies on the tumor interstitial matrix (Pluen A, et al. (2001) Proc Natl Acad Sci USA 98:4628-4633 and Brown E, et al. (2003) Nat Med 9:796-800), the inventors then sought to determine if a decrease in collagen content by Losartan can improve the intratumoral distribution of nanoparticles. The inventors therefore measured the intratumoral distribution of fluorescent polystyrene nanoparticles (100 nm diameter) in three different tumor types—HSTS26T, Mu89, and L3.6 pl—after an i.t. or i.v. injection. In mice injected i.t. with nanoparticles, losartan improved nanoparticle accumulation and penetration in the tumor center (FIG. 8A; HSTS26T p<0.001, Mu89 p<0.001). Conversely, there was little or no nanoparticle accumulation in the center of control tumors. Most of the injected nanoparticles in control tumors were found in the tumor margin and around the needle insertion point (FIG. 8A). The inventors also determined the effects of losartan on the intratumoral distribution of oncolytic HSV.
(§2) Nanoparticles and oncolytic HSV were infused with a syringe pump (Harvard Apparatus Standard Pump 22, Holliston, Mass.) at a flow rate of 4 μl/min. The inventors injected 10 μl of HSV (2.5×10^5 t.u.) expressing the green fluorescent protein (GFP), or 10 μl of fluorescent nanoparticles (diameter of […]; concentration of 1×10^13 nanoparticles/ml). […]

Mu89 tumors = assay: as above; type: in vivo, mice; settings: 24 hrs after i.t. injection of HSV expressing GFP
Source text: as §1, §2

CCCCc1nc(Cl)c(CO)n1Cc1ccc(-c2ccccc2-c2nn[nH]n2)cc1 [losartan]
solid stress (AK4.4 tumors): reduces solid stress
solid stress (4T1 breast tumors): reduces solid stress
effective permeability (E0771 tumors; 12 nm nanoparticles): improved
effective permeability (E0771 tumors; 60 nm nanoparticles): improved
effective permeability (E0771 tumors; 125 nm nanoparticles): improved
nanoparticle content in tumors vs control [1]: two-fold increase
virus spread (HSTS26T tumors): significantly increased
virus spread (Mu89 tumors): significantly increased
